# “And” between values parts separate entries of the source, which are not always exact repeats. Identical values can stand only once.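 Interpolation was linear, between the two tested concentrations surrounding the appropriate level; five concentrations were tested over 48 hours in 96-well plates. The concentration for 50% growth inhibition is given as GI50. TGI: concentration producing complete growth inhibition.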
# Experiments:
# Assay in all cases: NCI anticancer screen, dose series, 48 h
# TK-10 renal = tested on: TK-10 renal
# HL-60(TB) leukemia = tested on: HL-60(TB) leukemia
# EKVX NSCLC = tested on: EKVX NSCLC
# HOP-62 NSCLC = tested on: HOP-62 NSCLC
# UO-31 renal = tested on: UO-31 renal
# 786-0 renal = tested on: 786-0 renal
# NCI-H23 lung = tested on: NCI-H23 lung
# SF-539 CNS = tested on: SF-539 CNS
SMILES,TGI (TK-10 renal),TGI (HL-60(TB) leukemia),TGI (EKVX NSCLC),TGI (HOP-62 NSCLC),TGI (UO-31 renal),TGI (786-0 renal),TGI (NCI-H23 lung),TGI (SF-539 CNS),GI50 (TK-10 renal),GI50 (HL-60(TB) leukemia),GI50 (EKVX NSCLC),GI50 (HOP-62 NSCLC),GI50 (UO-31 renal),GI50 (786-0 renal),GI50 (NCI-H23 lung),GI50 (SF-539 CNS)
COc1cc(OC)c(OC)cc1/C=C/c1ccccn1,> 10 µM,> 10 µM,> 10 µM,> 10 µM,> 10 µM,> 10 µM,> 10 µM,> 10 µM,,,,,,,,
COCCn1c(Nc2ccc(C(=O)NO)cc2)nc2ccccc21,44.6 µM,> 100 µM,21.4 µM,55.1 µM,17.1 µM,23.5 µM,16.3 µM,25.1 µM,3.19 µM,3.63 µM,1.89 µM,4.58 µM,2.25 µM,10.5 µM,4.43 µM,4.56 µM
CC(=O)Nc1ccc(CC[C@H]2CCC/C=C/[C@@H]3C[C@H](O)C[C@H]3[C@H](O)/C=C/C(=O)O2)cc1,1.06 µM,3.95 µM,4.33 µM,,,0.0838 µM,0.759 µM,> 100 µM,0.172 µM,0.337 µM,0.191 µM,0.281 µM,0.316 µM,0.0252 µM,0.188 µM,0.423 µM
CCOc1cc(/C=C/C(=O)CC(=O)/C=C/c2ccc(OC(=O)CNc3nc4ccc(OC)cc4s3)c(OCC)c2)ccc1OC(=O)CNc1nc2ccc(OC)cc2s1,27.5 µM,15.2 µM,11.7 µM,> 100 µM,> 100 µM,85.1 µM,75.4 µM,5.14 µM,11.4 µM,2.77 µM,3.48 µM,23 µM,2.58 µM,17 µM,7.78 µM,2.12 µM
O=C(Nc1ccc(Nc2ccc3c(c2)C(=O)c2ccccc2C3=O)c2c1C(=O)c1ccccc1C2=O)c1ccccc1,> 100 µM,> 100 µM,> 100 µM,> 100 µM,> 100 µM,> 100 µM,> 100 µM,> 100 µM,,,,,,,,
Cc1cc(NC(=O)NCCCOc2ccc(N3C(N)=NC(N)=NC3(C)C)cc2Cl)ccc1S(=O)(=O)F,> 100 µM,28.9 µM,> 100 µM,19.6 µM,> 100 µM,> 100 µM,> 66.8 µM,31.7 µM,3.11 µM,0.647 µM,1.32 µM,2.24 µM,> 82.4 µM,2.46 µM,0.951 µM,2.85 µM
CC(C)(Sc1cc(C(C)(C)C)c(O)c(C(C)(C)C)c1)Sc1cc(C(C)(C)C)c(O)c(C(C)(C)C)c1,> 100 µM,3.08 µM,> 100 µM,> 100 µM,> 100 µM,> 100 µM,> 100 µM,> 100 µM,,,,,,,,
COc1ccc(CC(C)NCC(O)c2ccc(O)c(NC=O)c2)cc1 (stereo not drawn),> 100 µM,,> 100 µM,> 100 µM,> 100 µM,> 100 µM,> 100 µM,> 100 µM,,,,,,,,
Nc1nc(N)c2cc(S(=O)(=O)c3cccc(C(F)(F)F)c3)ccc2n1,> 100 µM,,> 100 µM,34.2 µM,> 100 µM,> 100 µM,> 100 µM,> 100 µM,7.78 µM,,3.32 µM,6.43 µM,4.96 µM,3.98 µM,3.63 µM,6.63 µM
COc1ccc(-c2nn3ncccc3c2-c2ccnc(Nc3ccc(F)c(F)c3)n2)cc1,> 25 µM,> 25 µM,> 22.7 µM,> 25 µM,> 20.9 µM,> 25 µM,> 25 µM,> 25 µM,14.3 µM,13.2 µM,5.06 µM,14.1 µM,5.8 µM,11.1 µM,11.5 µM,> 19.2 µM
O=c1oc2ccccc2cc1P(=O)(O)O,> 100 µM,> 100 µM,> 100 µM,> 100 µM,,> 100 µM,> 100 µM,> 100 µM,,,,,,,,
N#Cc1nc2cc(Cl)c(Cl)cc2nc1-c1ccc(Cl)cc1,46.3 µM,> 100 µM,> 100 µM,41.6 µM,> 100 µM,34.8 µM,> 100 µM,> 100 µM,21.3 µM,> 100 µM,> 100 µM,21 µM,34.7 µM,16.8 µM,> 60.5 µM,46.2 µM
COc1cc2c(cc1OCCCCCOc1ccc(-c3nc4ccccc4s3)cc1)N=C[C@@H]1CCCN1C2=O,> 57.7 µM,8.72 µM,> 21.2 µM,7.59 µM,13.4 µM,3.63 µM,10.5 µM,6.09 µM,8.48 µM,1.35 µM,5.66 µM,1.62 µM,2.5 µM,1.2 µM,2.6 µM,1.58 µM
CC[C@@H]1C(=O)N(C)c2cnc(Nc3ccc(C(=O)NC4CCC(N5CCN(CC6CC6)CC5)CC4)cc3OC)nc2N1C(C)C (stereo partly drawn),> 10 µM and 8.62 µM,0.0596 µM and 0.0871 µM,> 10 µM and 21.6 µM,> 8.64 µM and 3.93 µM,> 10 µM and 7.53 µM,> 3.29 µM and 1.28 µM,> 10 µM and 2.99 µM,1.36 µM and 1.48 µM,0.128 µM and 0.0776 µM,0.00286 µM and < 0.0167 µM,0.0749 µM and 0.234 µM,0.0208 µM and 0.034 µM,0.234 µM and 0.345 µM,0.0614 µM and 0.0721 µM,0.0158 µM and 0.028 µM,0.0409 µM and 0.0372 µM
C[C@]12CC[C@H]3[C@@H](CCC4=CC(=O)CC[C@@]43C)[C@]1(O)CC[C@]2(O)C(=O)CO,> 100 µM,> 100 µM,> 100 µM,> 100 µM,> 100 µM,> 100 µM,> 100 µM,> 100 µM,,,,,,,,
COc1cc(-c2csc(NC(=O)Nc3ccc(Cl)cc3)n2)cc(OC)c1OC,14.9 µM,6.83 µM,> 64.5 µM,7.76 µM,7.68 µM,7.83 µM,10.9 µM,13.7 µM,3.25 µM,2.79 µM,2.77 µM,2.65 µM,2.35 µM,2.35 µM,2.54 µM,2.98 µM
CN1CCN(c2ccc3nc(-c4[nH]ncc4Nc4ncnc5[nH]ccc45)[nH]c3c2)CC1,3.32 µM,0.686 µM,14.2 µM,4.06 µM,2.57 µM,2.21 µM,4.06 µM,0.496 µM,1.11 µM,0.285 µM,0.34 µM,0.381 µM,0.558 µM,0.387 µM,0.517 µM,0.176 µM

# — PubChem BioAssay (NCI)
